US4681899A, “Method of preventing the growth of malaria parasites in erythrocytes” (priority 1985, dated 1987)

Legend:
[1] = tested on: sickle red cells; settings: studies on sickle red cells; cited from earlier work
[2] = tested on: p. Vinckei; assay: in vivo efficacy in mice infected with p. Vinckei (FIG. 4); settings: oral, 3 mg/kg body weight
Method: Mice: Four to eight-week-old BALB/C male and female mice from a breeding colony were used.
Parasite: Stabilates of p. Vinchei TCC 30091) and p. Falciparum (FCR-3 knobless) were used.
In vivo method: The tail vein was nicked and a blood droplet was smeared.
The smears were stained with Giemsa, infected erythrocytes (which contain trophozoite and schizont stage parasites) were counted and percent parasitemia estimated.
Approximately 10^5 p. Vinchei parasites were injected intraperitoneally (I.P.) into a donor mouse and at the time of ascending parasitemia, the infected mouse was exsanguinated and red blood cells are prepared for in vivo experimentation.
(§1) A control and a drug concentration (approximately 3 mg/kg body weight/day) were provided orally via drinking water. Water containing drugs were prepared daily. Water intake were monitored daily to insure proper dosage and hydration levels. A commercial food pellet were provided ad libitum.
To each mouse, 10^6 parasitized red blood cells were injected I.P., and daily blood samples were collected from the tail vein to monitor the levels of parasitemia.
Five mice were used for each group tested.
During the experimentation, we monitored both the percent parasitemia and percent survival rate of each experimental group.
Using p. Vinckei and a mice model, Ohnishi has also tested the efficacy of W-7.

[3] = tested on: mice; settings: oral administration; cited from earlier work
[4] = tested on: beta-adrenergic; settings: cited from earlier work
[5] = tested on: p. Falciparum; assay: in vivo efficacy in mice infected by p. Falciparum (FIG. 3); settings: 3 mg/kg/day orally
[6] = tested on: mice; assay: side effects in mice at 3 mg/kg/day orally; type: in vivo
Method: as §1
Ohnishi tested an in vivo efficacy of these drugs using mice infected by p. Falciparum.

[7] = tested on: man; settings: adults; mixture of l-form and d-form; cited from earlier work

| Structure (SMILES) | effect on red cell metabolism and cell sickling [1] | acute LD50 [3] [mg/kg] | beta-adrenergic blocker activity of the form [4] | inhibition of the growth of parasites in mice [5] | side effect [6] | further results |
| --- | --- | --- | --- | --- | --- | --- |
| NCCCCCCNS(=O)(=O)c1cccc2c(Cl)cccc12 [W-7] | altered the red cell metabolism and thus affected the cell sickling | 75 |  |  |  | life span after infection [2]: extended their life span after infection; suppression of the growth of parasites [2]: suppressed the growth of parasites |
| C=CCc1ccccc1OCC(O)CNC(C)C (stereo not drawn) [alprenolol] | altered the red cell metabolism and thus affected the cell sickling |  |  |  |  |  |
| CC(C)NC[C@@H](O)COc1cccc2ccccc12 [d-propranolol] |  |  | inactive beta-adrenergic blocker | effectively inhibited the growth of parasites in mice | no side effect was observed |  |
| C=CCc1ccccc1OC[C@@H](O)CNC(C)C [l-alprenolol] |  | 278 |  |  |  |  |
| CC(C)NC[C@H](O)COc1cccc2ccccc12 [l-propranolol] |  |  | active beta-adrenergic blocker | effectively inhibited the growth of parasites in mice | no side effect was observed |  |
| CC(C)NCC(O)COc1cccc2ccccc12 (stereo not drawn) [propranolol] | altered the red cell metabolism and thus affected the cell sickling |  |  |  |  | usual effective dose in man as an anti-hypertensive drug (daily) [7]: 160-480 mg daily; usual effective dose in man as an anti-hypertensive drug (per body weight) [7]: 3-8 mg/kg body weight/day |
